The text below walks through data of patent publication US20110251286A1, “Crystalline salts and/or co-crystals of O-desmethyltramadol” (GRUENENTHAL GmbH, priority 2010, published 2011).

Series [1] is described as follows: Release in artificial intestinal juice. Particulars: permeable bag, amount calculated on 100 mg free base. Type of series: physicochemical. Here is the method:
Investigations on release were carried out in a Sotax AT7 smart release apparatus with UV measurement (Perkin Elmer photometer).
A vessel with Wood apparatus was used (for intrinsic release).
A pressing of 0.5 cm^2 surface area (diameter 8 mm) was produced with a force of 200 N using approximately 100 mg of active ingredient.
Release was carried out in a release medium, which is composed as described below: • Intestinal juice without pancreas powder, pH 6.8 (analogous to Ph. Eur.); 250.0 ml 6.8 g of potassium dihydrogenphosphate R+0.896 g of NaOH+water to 1000.0 ml.
Release was carried out in a release volume of in each case 500±5 ml at a temperature of the release medium of 37±1° C. with a stirring speed of 100±5 rpm.
The content determination was carried out by means of spectroscopic methods (UV spectroscopy, wavelength: 271 nm, cuvette: 10 mm). Sample taking was carried out manually.
In this release experiment, the individual compounds were placed in a permeable bag in an amount in each case calculated on 100 mg of the free base.
The results, expressed in percent of the substance released, are reproduced in the following tables. In this case, the compounds denote: HCl: hydrochloride; A: cinnamate; B: palmitate; C: decanoate; E: hemi-fumarate and F: hemi-sebacate.

A short description of series [2]: Dynamic vapor sorption (DVS): sorption and desorption of moisture. In kind it is physicochemical. Here is the method: Investigations on the sorption and desorption of moisture (dynamic vapor sorption, DVS): DVS measurements were carried out on an apparatus of the type DVS 1000 from Porotec. The evaluation of the measurements was carried out using software from Surface Measurement Systems. At a temperature between 23° C. and 26° C., starting from a relative humidity of 50%, within 240 minutes the relative humidity first increased to 90% and then fell to 0%. This cycle was repeated a second time. The DVS charts shown are isothermal recordings (plots) of the change in the mass in % (change in mass—dry) as a function of the desired relative humidity in % (target RH). Correspondingly, the axes of the graphs are marked by ΔM [%] and RH [%]. The measurement curves of the first sorption are designated by 1-S, the subsequent first desorption by 1-D, the second sorption by 2-S and the second desorption by 2-D. Advantageously, mass changes between the sorption and desorption phase are as low as possible.

As to `CN(C)CC1CCCCC1(O)c1cccc(O)c1.O=C(O)C=Cc1ccccc1` (stereo not shown) [A-1], the “Release in artificial intestinal juice, percent of the substance released” value (from here on “Release … percent of the substance released”) was 58.49% in series [1] (t 2 min); 74.11% in series [1] (t 4 min); 84.48% in series [1] (t 6 min); 91.49% in series [1] (t 8 min); 92.24% in series [1] (t 10 min); 96.63% in series [1] (t 12 min). For the same compound, the figures for the “Release … percent of the substance released” value in series [1] (t 15 min) and in series [1] (t 30 min) were 97.34% and 102.44%, respectively.

Consider `CN(C)CC1CCCCC1(O)c1cccc(O)c1.O=C(O)C=Cc1ccccc1` (stereo not shown) [A-2], for which the “Release … percent of the substance released” value in series [1] (t 2 min) is 53.05%; in series [1] (t 4 min), 76.86%; in series [1] (t 6 min) it was 86.98%; in series [1] (t 8 min), 96.27%; in series [1] (t 10 min), 94.24%; in series [1] (t 12 min), 95.42%. The “Release … percent of the substance released” value is on record as 98.53% in series [1] (t 15 min) and 98.80% in series [1] (t 30 min).

Take `CCCCCCCCCCCCCCCC(=O)O.CN(C)CC1CCCCC1(O)c1cccc(O)c1` [B-1]: the “Release … percent of the substance released” value is listed as 17.63% in series [1] (t 2 min); 31.60% in series [1] (t 4 min); 55.36% in series [1] (t 6 min); 53.71% in series [1] (t 8 min); 67.26% in series [1] (t 10 min); 69.49% in series [1] (t 12 min). The “Release … percent of the substance released” value in series [1] (t 15 min) is given as 76.13%; in series [1] (t 30 min), 95.50%.

For the compound `CCCCCCCCCC(=O)O.CN(C)CC1CCCCC1(O)c1cccc(O)c1` (stereo not shown) [C-1], the “Release … percent of the substance released” value in series [1] (t 2 min) is 79.57%; in series [1] (t 4 min), 93.67%; in series [1] (t 6 min), 99.13%; in series [1] (t 8 min), 99.87%; in series [1] (t 10 min), 99.63%; in series [1] (t 12 min) it was 99.80%. Further, the “Release … percent of the substance released” value in series [1] (t 15 min) is 99.92%; in series [1] (t 30 min) it was 100.27%.

As for `CCCCCCCCCC(=O)O.CN(C)CC1CCCCC1(O)c1cccc(O)c1` (stereo not shown) [C-2], the “Release … percent of the substance released” value in series [1] (t 2 min) is 92.62%; in series [1] (t 4 min) it was 99.12%; in series [1] (t 6 min), 99.74%; in series [1] (t 8 min), 99.73%; in series [1] (t 10 min), 99.55%; in series [1] (t 12 min), 99.73%. Further, the “Release … percent of the substance released” value in series [1] (t 15 min) is 99.56%; in series [1] (t 30 min), 99.77%.

As for `CN(C)CC1CCCCC1(O)c1cccc(O)c1.CN(C)CC1CCCCC1(O)c1cccc(O)c1.O=C(O)C=CC(=O)O` (stereo not shown) [E-1], the “Release … percent of the substance released” value in series [1] (t 2 min) is 99.32%; in series [1] (t 4 min), 100.25%; in series [1] (t 6 min) it was 99.24%; in series [1] (t 8 min) it was 99.47%; in series [1] (t 10 min), 100.58%; in series [1] (t 12 min), 99.42%. The “Release … percent of the substance released” value in series [1] (t 15 min) is listed as 98.40%; in series [1] (t 30 min) it was 100.24%.

For `CN(C)CC1CCCCC1(O)c1cccc(O)c1.CN(C)CC1CCCCC1(O)c1cccc(O)c1.O=C(O)C=CC(=O)O` (stereo not shown) [E-2], the “Release … percent of the substance released” value in series [1] (t 2 min) is 95.38%; in series [1] (t 4 min), 96.67%; in series [1] (t 6 min), 95.80%; in series [1] (t 8 min), 96.46%; in series [1] (t 10 min) it was 96.47%; in series [1] (t 12 min) it was 96.45%. The “Release … percent of the substance released” value was 96.19% in series [1] (t 15 min) and 96.42% in series [1] (t 30 min).

`CN(C)C[C@H]1CCCC[C@]1(O)c1cccc(O)c1` [free base, (+)-(1R,2R)-3-[2-(dimethylamino)methyl-1-hydroxycyclohexyl]phenol]: the “ΔM Desorption” value in series [2] (1st cycle, RH 0.0 %) turned out to be 0.00000%; in series [2] (1st cycle, RH 10.0 %) it was 0.00395%; in series [2] (1st cycle, RH 20.0 %), 0.00526%; in series [2] (1st cycle, RH 30.0 %), 0.00526%; in series [2] (1st cycle, RH 40.0 %) it was 0.00636%; in series [2] (1st cycle, RH 50.0 %) it was 0.00614%. In addition, the “ΔM Desorption” value is listed as 0.00526% in series [2] (1st cycle, RH 60.0 %); 0.00395% in series [2] (1st cycle, RH 70.0 %); 0.00132% in series [2] (1st cycle, RH 80.0 %); −0.01097% in series [2] (1st cycle, RH 90.0 %); −0.00461% in series [2] (2nd cycle, RH 0.0 %); −0.00132% in series [2] (2nd cycle, RH 10.0 %). For the same compound, the “ΔM Desorption” value turned out to be 0.00044% in series [2] (2nd cycle, RH 20.0 %); 0.00132% in series [2] (2nd cycle, RH 30.0 %); 0.00307% in series [2] (2nd cycle, RH 40.0 %); 0.00395% in series [2] (2nd cycle, RH 50.0 %); 0.00395% in series [2] (2nd cycle, RH 60.0 %); 0.00329% in series [2] (2nd cycle, RH 70.0 %). The “ΔM Desorption” value in series [2] (2nd cycle, RH 80.0 %) was 0.00132%; in series [2] (2nd cycle, RH 90.0 %), −0.01031%. The “ΔM Hysteresis” value is on record as −0.00241% in series [2] (1st cycle, RH 50.0 %); −0.00219% in series [2] (1st cycle, RH 60.0 %); 0.00219% in series [2] (1st cycle, RH 70.0 %); 0.00592% in series [2] (1st cycle, RH 80.0 %); −0.00329% in series [2] (2nd cycle, RH 10.0 %); −0.00351% in series [2] (2nd cycle, RH 20.0 %). The “ΔM Hysteresis” value is recorded as −0.00395% in series [2] (2nd cycle, RH 30.0 %); −0.00395% in series [2] (2nd cycle, RH 40.0 %); −0.00592% in series [2] (2nd cycle, RH 50.0 %); −0.00724% in series [2] (2nd cycle, RH 60.0 %); −0.00417% in series [2] (2nd cycle, RH 70.0 %); 0.00197% in series [2] (2nd cycle, RH 80.0 %). In addition, the “ΔM Sorption” value in series [2] (1st cycle, RH 50.0 %) is 0.00855%; in series [2] (1st cycle, RH 60.0 %), 0.00746%; in series [2] (1st cycle, RH 70.0 %), 0.00175%; in series [2] (1st cycle, RH 80.0 %), −0.00461%; in series [2] (1st cycle, RH 90.0 %), −0.01097%; in series [2] (2nd cycle, RH 0.0 %) it was 0.00000%. Besides, the “ΔM Sorption” value in series [2] (2nd cycle, RH 10.0 %) came to 0.00197%; in series [2] (2nd cycle, RH 20.0 %), 0.00395%; in series [2] (2nd cycle, RH 30.0 %), 0.00526%; in series [2] (2nd cycle, RH 40.0 %) it was 0.00702%; in series [2] (2nd cycle, RH 50.0 %), 0.00987%; in series [2] (2nd cycle, RH 60.0 %), 0.01119%. The “ΔM Sorption” value in series [2] (2nd cycle, RH 70.0 %) was 0.00746%; in series [2] (2nd cycle, RH 80.0 %) it was −0.00066%; in series [2] (2nd cycle, RH 90.0 %), −0.01031%; in series [2] (3rd cycle, RH 0.0 %), −0.00461%; in series [2] (3rd cycle, RH 10.0 %), −0.0011%; in series [2] (3rd cycle, RH 20.0 %) it was 0.00066%. The “ΔM Sorption” value in series [2] (3rd cycle, RH 30.0 %) was 0.00197%; in series [2] (3rd cycle, RH 40.0 %) it was 0.00461%; in series [2] (3rd cycle, RH 50.0 %) it was 0.00768%.
